Results as given in patent US9732370B2, “Method for the determination of the presence of an antibiotic in a fluid” (DSM IP ASSETS B.V., priority 2013, dated 2017).

Tested on: test organism of Delvotest SP-NT
Test: Microbial growth inhibition test (DSM Delvotest SP-NT, reference or modified with streptomycin in the test medium): detection limit of antibiotics in spiked milk
Format: cell-based
Conditions: for Detection limit: spiked milk, 64° C., cut-off Z-value 0; for Effect of an aminoglycoside antibiotic in the test medium on the sensitivity of the test for the antibiotic: aminoglycoside antibiotic (streptomycin) added to test medium versus reference test
Experimental: As a reference, a commercially available test system without any added aminoglycoside antibiotic (DSM Delvotest® SP-NT, plates containing 8×12 test wells) was used. In addition, two different test systems were prepared by modifying the reference test by adding the aminoglycoside antibiotic streptomycin to the test medium in a final concentration of 100 ppb or 1000 ppb. The detection limits of four different antibiotics were measured in the reference test and in the tests with modified medium containing different concentrations of streptomycin. The antibiotics that were measured were streptomycin and dihydrostreptomycin (DH-streptomycin) (both belonging to the aminoglycoside antibiotic family), penicillin G (belonging to the beta-lactam antibiotic family), and oxytetracycline (belonging to the tetracycline antibiotic family) Five different concentrations of each antibiotic (see Table 1) were measured. Hundred microliter antibiotic-free milk or hundred microliter milk spiked with the respective concentrations of antibiotic was added to the test medium (170 μl) and incubated at 64° C. in a water bath. The tests were visually determined at the point in time where a sample without antibiotic had changed colour from purple to yellow. At this point, the plates were cooled in an ice bath for 5 minutes. The cooled plates were scanned on a Delvo® scanner. The colour of each well was expressed as a Z-value; a purple colour gives rise to a positive Z-value, while a yellow colour has a negative Z-value. The Z-value of test results with samples without antibiotic is typically […]. Detailed description of the scanning technology and the expression of the colour in Z-values are described in WO 03/033728. For the determination of the detection limit for each antibiotic, a dose-response function (Z-value versus concentration of antibiotic) was constructed. The detection limit is defined as the antibiotic concentration where the S-shaped dose-response function has a Z-value equal to the cut-off value. For Delvotest® SP-NT a cut-off Z-value of 0 was used.

[1] = Streptomycin concentration in test 0 ppb (reference Delvotest SP-NT)
[2] = Streptomycin concentration in test 100 ppb
[3] = Streptomycin concentration in test 1000 ppb

Row | SMILES | Detection limit [1] [ppb] | Detection limit [2] [ppb] | Detection limit [3] [ppb] | Effect of an aminoglycoside antibiotic in the test medium on the sensitivity of the test for the antibiotic
1 | CN(C)[C@@H]1C(O)=C(C(N)=O)C(=O)[C@@]2(O)C(O)=C3C(=O)c4c(O)cccc4[C@@](C)(O)[C@H]3[C@H](O)[C@@H]12 [Oxytetracycline, oxytetracycline] | 264 | 239 | 343 | no effect
2 | CC1(C)S[C@@H]2[C@H](NC(=O)Cc3ccccc3)C(=O)N2[C@H]1C(=O)O [Penicillin G, penicillin G] | 1.04 | 0.95 | 1.07 | no effect
3 | [H]/N=C(/N)N[C@H]1[C@H](O)[C@@H](O)[C@H](O[C@@H]2O[C@@H](C)[C@](O)(C=O)[C@H]2O[C@@H]2O[C@@H](CO)[C@H](O)[C@@H](O)[C@@H]2NC)[C@@H](N/C(N)=N\[H])[C@@H]1O [Streptomycin, streptomycin] | – | 1186 | 676 | increases
4 | CN[C@@H]1[C@H](O[C@H]2[C@H](O[C@H]3[C@H](O)[C@@H](O)[C@H](NC(=N)N)[C@@H](O)[C@@H]3NC(=N)N)O[C@@H](C)[C@]2(O)CO)O[C@@H](CO)[C@H](O)[C@H]1O [DH-streptomycin, dihydrostreptomycin] | – | 982 | 445 | increases
